Experimental data from patent US20220170949A1, “SYSTEM AND METHOD FOR DETECTING THERAPEUTIC AGENTS TO MONITOR ADHERENCE TO A TREATMENT REGIMEN” (ORASURE TECHNOLOGIES, INC., priority 2019, published 2022).
Like-named read-outs stand apart in the source and are kept apart here.

Tests used:
HIV = settings: PBMCs (Anderson 2012); cited from earlier work
[1] = in vivo; cited from earlier work
HIV-1 = settings: cited from earlier work
[2] = in vivo, po
From the text: Antiretroviral concentrations in whole blood or plasma are potentially useful in monitoring adherence to PrEP.

SMILES | intracellular concentration associated with a 90% reduction in HIV acquisition relative to the placebo arm (HIV) | intracellular half-life [1] [h] | plasma half-life [1] [h] | HIV-1 risk reduction corresponding to intracellular tenofovir concentrations (HIV-1; 2 doses per week) [%] | HIV-1 risk reduction corresponding to intracellular tenofovir concentrations (HIV-1; 4 doses per week) [%] | HIV-1 risk reduction corresponding to intracellular tenofovir concentrations (HIV-1; 7 doses per week) [%] | window of medication usage reflected by TFV detection in whole blood or plasma [2]
CC(Cn1cnc2c(N)ncnc21)OCP(=O)(O)OP(=O)(O)OP(=O)(O)O (stereo in doubt) [tenofovir-diphosphate] | 16 fmol per million peripheral blood mononuclear cells (PBMCs) |  |  |  |  |  | 
C[C@H](Cn1cnc2c(N)ncnc21)OCP(=O)(O)O [Tenofovir] |  | 150 | 17 | 76 | 96 | 99 | one to at least seven days
